# Data taken from PubChem BioAssay (NCI).
#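 These data come from cells grown in 96-well plates and exposed to compound for 48 hours at five concentrations. TGI denotes the concentration required for complete inhibition of growth.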
# Legend:
# Assay in all cases: inhibition of tumour cell growth, NCI panel, 48 h
# KM20L2 colon = tested on: KM20L2 colon
# LXFL 529 NSCLC = tested on: LXFL 529 NSCLC
# HOP-18 NSCLC = tested on: HOP-18 NSCLC
# SNB-78 CNS = tested on: SNB-78 CNS
# RXF-631 renal = tested on: RXF-631 renal
structure (smiles),measurement,setting,value
COc1ccc(C2=C(Cl)c3cc(OC)c(OC)cc3C2)cc1OC,TGI,KM20L2 colon,> 100 µM
same,TGI,LXFL 529 NSCLC,> 100 µM
same,TGI,HOP-18 NSCLC,> 100 µM
same,TGI,SNB-78 CNS,> 100 µM
CNc1ccc([N+](=O)[O-])c2c(NCCCN(C)C)ccnc12,TGI,KM20L2 colon,> 100 µM
same,TGI,SNB-78 CNS,> 100 µM
O=C(NN1C(=O)C(Cl)C1c1ccccc1Cl)c1ccccc1O (stereo not given),TGI,LXFL 529 NSCLC,> 100 µM
same,TGI,HOP-18 NSCLC,> 100 µM
same,TGI,SNB-78 CNS,> 100 µM
COc1cc2c(c(OC)c1OC)-c1ccc(SC)c(=O)cc1[C@@H](NC(=O)c1ccc([N+](=O)[O-])cc1)CC2,TGI,RXF-631 renal,> 100 µM
same,TGI,SNB-78 CNS,25 µM
N#Cc1cc([N+](=O)[O-])ccc1NC(=O)C(=O)C(C(=O)c1ccc2ccccc2c1)C1OCc2ccccc21 (stereo not given),TGI,RXF-631 renal,37.5 µM
same,TGI,KM20L2 colon,42.6 µM
same,TGI,LXFL 529 NSCLC,13.7 µM
same,TGI,SNB-78 CNS,35.2 µM
COc1cc(C(O)C(=O)c2cnc3cc([N+](=O)[O-])ccc3n2)ccc1O (stereo not given),TGI,RXF-631 renal,> 100 µM
same,TGI,KM20L2 colon,> 100 µM
same,TGI,LXFL 529 NSCLC,> 100 µM
C[N+](C)(C)CC(CC(=O)[O-])C1CC1 (stereo not given),TGI,RXF-631 renal,> 100 µM
same,TGI,KM20L2 colon,> 100 µM
same,TGI,LXFL 529 NSCLC,> 100 µM
same,TGI,HOP-18 NSCLC,> 100 µM
O=C1/C(=C/c2ccc(Cl)cc2)CCC1CN1CCOCC1 (stereo not given),TGI,RXF-631 renal,> 62.5 µM
same,TGI,KM20L2 colon,29.1 µM
same,TGI,LXFL 529 NSCLC,6.88 µM
same,TGI,HOP-18 NSCLC,29.7 µM
same,TGI,SNB-78 CNS,48.9 µM
Cc1ccc(NC(=O)/C(=N/NC(=O)C[N+](C)(C)C)c2nc3ccccc3[nH]c2=O)cc1,TGI,RXF-631 renal,> 100 µM
same,TGI,KM20L2 colon,> 100 µM
same,TGI,LXFL 529 NSCLC,> 100 µM
same,TGI,HOP-18 NSCLC,> 100 µM
same,TGI,SNB-78 CNS,> 100 µM
Cn1cnc(SC2=C3C(=O)C=C4S[C@H]5C[C@]42c2c(c(O)c4c6c2=[N+]3CCC=6C=N4)N5)c1CC(N)C(=O)O (stereo not given in full),TGI,KM20L2 colon,16.6 µM
same,TGI,LXFL 529 NSCLC,27.1 µM
same,TGI,HOP-18 NSCLC,> 100 µM
same,TGI,SNB-78 CNS,40.9 µM
C[N+](C)(C)CC(=O)N/N=C(/Cc1nc2ccc([N+](=O)[O-])cc2[nH]c1=O)C(=O)Nc1cc(C(F)(F)F)ccc1Cl,TGI,RXF-631 renal,> 100 µM
same,TGI,KM20L2 colon,> 100 µM
O=C(Nc1ccc(Sc2ccc(N=Nc3c(O)c(S(=O)(=O)O)cc4cc(S(=O)(=O)O)ccc34)cc2)cc1)c1ccc(N=Nc2c(O)c(S(=O)(=O)O)cc3cc(S(=O)(=O)O)ccc23)cc1,TGI,KM20L2 colon,> 100 µM
same,TGI,LXFL 529 NSCLC,> 100 µM
same,TGI,HOP-18 NSCLC,79.7 µM
same,TGI,SNB-78 CNS,> 100 µM
CC1=NN(C(=O)Cc2ccccc2)C(=O)/C1=C\c1ccccc1O,TGI,KM20L2 colon,> 100 µM
same,TGI,LXFL 529 NSCLC,> 100 µM
same,TGI,SNB-78 CNS,> 100 µM
CCCCCCCCCCCCCCCC(=O)OCC1OC(OC)C(NC(=O)N(CCCl)N=O)C(O)C1O (stereo not given),TGI,KM20L2 colon,58.4 µM
same,TGI,LXFL 529 NSCLC,37.4 µM
same,TGI,HOP-18 NSCLC,> 100 µM
same,TGI,SNB-78 CNS,> 85.5 µM
CCOc1ccc(NCC2CC/C(=C\c3ccc(Cl)cc3)C2=O)cc1 (stereo not given),TGI,KM20L2 colon,> 55.8 µM
same,TGI,LXFL 529 NSCLC,25.8 µM
same,TGI,HOP-18 NSCLC,54.6 µM
same,TGI,SNB-78 CNS,> 100 µM
CN(C(=O)C12C3C4C1C1C2C3C41C(O)C(C)(C)C)C(C)(C)C (stereo not given),TGI,RXF-631 renal,> 100 µM
same,TGI,KM20L2 colon,> 100 µM
same,TGI,LXFL 529 NSCLC,> 100 µM
same,TGI,SNB-78 CNS,> 100 µM
COc1cc2c(c(OC)c1OC)-c1ccc(SC)c(=O)cc1[C@@H](NCc1cccc([N+](=O)[O-])c1)CC2,TGI,KM20L2 colon,< 0.01 µM
same,TGI,LXFL 529 NSCLC,> 100 µM
same,TGI,HOP-18 NSCLC,> 100 µM
same,TGI,SNB-78 CNS,> 100 µM
c1ccc2c(c1)Sc1ccccc1N2C1CN2CCC1CC2 (stereo not given),TGI,KM20L2 colon,30.2 µM
same,TGI,LXFL 529 NSCLC,30.6 µM
same,TGI,HOP-18 NSCLC,47.5 µM
same,TGI,SNB-78 CNS,30 µM
